Test results as given in PubChem BioAssay (NCI).
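GI50 = concentration required for 50% inhibition of growth. The concentration for full growth arrest is given as TGI.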

Key:
Test in all cases: NCI-60 cell line screen, 384-well format
LOX IMVI melanoma = test system: LOX IMVI melanoma
OVCAR-4 ovarian = test system: OVCAR-4 ovarian
SN12C renal = test system: SN12C renal
HCT-15 colon = test system: HCT-15 colon
UACC-62 melanoma = test system: UACC-62 melanoma
MOLT-4 leukemia = test system: MOLT-4 leukemia
SK-MEL-28 melanoma = test system: SK-MEL-28 melanoma
TK-10 renal = test system: TK-10 renal
A498 renal = test system: A498 renal
HS 578T breast = test system: HS 578T breast
DU-145 prostate = test system: DU-145 prostate
IGROV1 ovarian = test system: IGROV1 ovarian
MDA-MB-231 breast = test system: MDA-MB-231 breast
SK-MEL-5 melanoma = test system: SK-MEL-5 melanoma
NCI-H522 lung = test system: NCI-H522 lung
KM12 colon = test system: KM12 colon
RXF 393 renal = test system: RXF 393 renal
SK-OV-3 ovarian = test system: SK-OV-3 ovarian
NCI/ADR-RES ovarian = test system: NCI/ADR-RES ovarian
PC-3 prostate = test system: PC-3 prostate
SF-539 CNS = test system: SF-539 CNS
HCT-116 colon = test system: HCT-116 colon
UACC-257 melanoma = test system: UACC-257 melanoma
BT-549 breast = test system: BT-549 breast
MALME-3M melanoma = test system: MALME-3M melanoma
EKVX NSCLC = test system: EKVX NSCLC
HL-60(TB) leukemia = test system: HL-60(TB) leukemia
A549 NSCLC = test system: A549 NSCLC
ACHN renal = test system: ACHN renal
OVCAR-8 ovarian = test system: OVCAR-8 ovarian
SNB-19 CNS = test system: SNB-19 CNS
MDA-MB-435 melanoma = test system: MDA-MB-435 melanoma
HOP-92 NSCLC = test system: HOP-92 NSCLC
OVCAR-5 ovarian = test system: OVCAR-5 ovarian
NCI-H226 lung = test system: NCI-H226 lung
SNB-75 CNS = test system: SNB-75 CNS
HT29 colon = test system: HT29 colon
MCF7 breast = test system: MCF7 breast
MDA-MB-468 breast = test system: MDA-MB-468 breast
SR leukemia = test system: SR leukemia
COLO 205 colon = test system: COLO 205 colon
T-47D breast = test system: T-47D breast
OVCAR-3 ovarian = test system: OVCAR-3 ovarian
RPMI-8226 leukemia = test system: RPMI-8226 leukemia
CAKI-1 renal = test system: CAKI-1 renal
M14 melanoma = test system: M14 melanoma
NCI-H460 NSCLC = test system: NCI-H460 NSCLC
HOP-62 NSCLC = test system: HOP-62 NSCLC
HCC-2998 colon = test system: HCC-2998 colon
SF-295 CNS = test system: SF-295 CNS
NCI-H23 lung = test system: NCI-H23 lung
NCI-H322M lung = test system: NCI-H322M lung
U251 glioblastoma = test system: U251 glioblastoma
SF-268 CNS = test system: SF-268 CNS

## N#CCNC(=O)c1ccc(-c2ccnc(Nc3ccc(N4CCOCC4)cc3)n2)cc1
LOX IMVI melanoma
  GI50: 1700 nM
  TGI: 4.06 µM
OVCAR-4 ovarian
  GI50: 3.59 µM
  TGI: 11.1 µM
SN12C renal
  GI50: 787 nM
  TGI: 3.94 µM
HCT-15 colon
  GI50: 3.02 µM
  TGI: 10.7 µM
UACC-62 melanoma
  GI50: 3.57 µM
  TGI: 15.3 µM
MOLT-4 leukemia
  GI50: 2070 nM
  TGI: 3.99 µM
SK-MEL-28 melanoma
  GI50: 6.23 µM
  TGI: 50.8 µM
TK-10 renal
  GI50: 1250 nM
  TGI: 3.27 µM
A498 renal
  GI50: 1140 nM
  TGI: 2530 nM
HS 578T breast
  GI50: 1320 nM
  TGI: 3.33 µM
DU-145 prostate
  GI50: 1550 nM
  TGI: 3.99 µM
IGROV1 ovarian
  GI50: 1420 nM
  TGI: 3.91 µM
MDA-MB-231 breast
  GI50: 1890 nM
  TGI: 16.8 µM
SK-MEL-5 melanoma
  GI50: 2160 nM
  TGI: 9.34 µM
NCI-H522 lung
  GI50: 1640 nM
  TGI: 6.45 µM
KM12 colon
  GI50: 3.51 µM
  TGI: 74.1 µM
RXF 393 renal
  GI50: 1610 nM
  TGI: 3.26 µM
SK-OV-3 ovarian
  GI50: 2730 nM
  TGI: 20.7 µM
NCI/ADR-RES ovarian
  GI50: 21.4 µM
  TGI: > 100 µM
PC-3 prostate
  GI50: 2900 nM
  TGI: 11.8 µM
SF-539 CNS
  GI50: 2120 nM
  TGI: 10 µM
HCT-116 colon
  GI50: 1510 nM
  TGI: 3.91 µM
UACC-257 melanoma
  GI50: 3.19 µM
  TGI: 8.82 µM
BT-549 breast
  GI50: 1150 nM
  TGI: 2460 nM
MALME-3M melanoma
  GI50: 3.05 µM
  TGI: 23.5 µM
EKVX NSCLC
  GI50: 2930 nM
  TGI: 16.8 µM
HL-60(TB) leukemia
  GI50: 1550 nM
  TGI: 2890 nM
A549 NSCLC
  GI50: 3.19 µM
  TGI: 13.7 µM
ACHN renal
  GI50: 1270 nM
  TGI: 4.14 µM
OVCAR-8 ovarian
  GI50: 3.68 µM
  TGI: 17.6 µM
SNB-19 CNS
  GI50: 7.84 µM
  TGI: 28.3 µM
MDA-MB-435 melanoma
  GI50: 4.02 µM
  TGI: 21.5 µM
HOP-92 NSCLC
  GI50: 6.94 µM
  TGI: 29 µM
OVCAR-5 ovarian
  GI50: 2630 nM
  TGI: 5.71 µM
NCI-H226 lung
  GI50: 1430 nM
  TGI: 3.66 µM
SNB-75 CNS
  GI50: 2520 nM
  TGI: 15.5 µM
HT29 colon
  GI50: 4.15 µM
  TGI: 24.6 µM
MCF7 breast
  GI50: 2240 nM
  TGI: 8.44 µM
MDA-MB-468 breast
  GI50: 1370 nM
  TGI: 3.2 µM
SR leukemia
  GI50: 468 nM
  TGI: 1290 nM
COLO 205 colon
  GI50: 4.24 µM
  TGI: 14.8 µM
T-47D breast
  GI50: 11 µM
  TGI: 39.9 µM
OVCAR-3 ovarian
  GI50: 4.64 µM
  TGI: 19 µM
RPMI-8226 leukemia
  GI50: 1230 nM
  TGI: 2870 nM
CAKI-1 renal
  GI50: 1230 nM
  TGI: 3.19 µM
M14 melanoma
  GI50: 6.27 µM
  TGI: 51.2 µM
NCI-H460 NSCLC
  GI50: 1060 nM
  TGI: 2500 nM
HOP-62 NSCLC
  GI50: 1810 nM
  TGI: 4.09 µM
HCC-2998 colon
  GI50: 1930 nM
  TGI: 4.18 µM
SF-295 CNS
  GI50: 4.06 µM
  TGI: 17 µM
NCI-H23 lung
  GI50: 2330 nM
  TGI: 13.6 µM
NCI-H322M lung
  GI50: 2720 nM
  TGI: 10.8 µM
U251 glioblastoma
  GI50: 2280 nM
  TGI: 5.9 µM
SF-268 CNS
  GI50: 2120 nM
  TGI: 6.6 µM
